BindingDB's records for patent US20240336593 (Lnnovstonetherapeutics, 2024)

Molecular target: Protein arginine N-methyltransferase 5 (Homo sapiens, UniProt O14744)
Assay: Test on the inhibitory activity of the compounds of the invention against PRMT5 enzyme by radioisotopic method
Protocol: Test method: A 1× enzyme reaction buffer (10 mM Tris 8.0 (Sigma, Cat. No. T2694-1L), 0.01% Tween-20 (Sigma, Cat. No. P2287-100 ML), 1 mM DTT (Sigma, Cat. No. D0632-10G)) was prepared. […] SAM (PerkinElmer, Cat. No. NET155V001MC) were added to the 1×enzyme reaction buffer, to prepare a 25/15× mixed solution (PRMT5 final concentration: 5 nM, [3H] SAM final concentration: 0.3 μM). […] 25 µL of the reaction mixture was transferred into a FlashPlate (Streptavidin FlashPlate HTS PLUS, High Capacity, 384-well, Perkin Elmer, Cat. No. SMP410A001PK), and incubated at room temperature for 1 h. After washed three times with distilled water containing 0.1% Tween-20, the microplate was read on a MicroBeta reader for CPM data (Counts Per Minute). […] Then the inhibition rate Inh % (Y) corresponding to each concentration (X) was input in EXCEL, and the IC50 value (the half maximal inhibitory concentration) of each compound was calculated with the XLfit plug-in according to the built-in four-parameter fitting equation Y=Bottom+(Top-Bottom)/(1+(IC50/X)[…]).

Sequence of Protein arginine N-methyltransferase 5 (O14744 whole entry): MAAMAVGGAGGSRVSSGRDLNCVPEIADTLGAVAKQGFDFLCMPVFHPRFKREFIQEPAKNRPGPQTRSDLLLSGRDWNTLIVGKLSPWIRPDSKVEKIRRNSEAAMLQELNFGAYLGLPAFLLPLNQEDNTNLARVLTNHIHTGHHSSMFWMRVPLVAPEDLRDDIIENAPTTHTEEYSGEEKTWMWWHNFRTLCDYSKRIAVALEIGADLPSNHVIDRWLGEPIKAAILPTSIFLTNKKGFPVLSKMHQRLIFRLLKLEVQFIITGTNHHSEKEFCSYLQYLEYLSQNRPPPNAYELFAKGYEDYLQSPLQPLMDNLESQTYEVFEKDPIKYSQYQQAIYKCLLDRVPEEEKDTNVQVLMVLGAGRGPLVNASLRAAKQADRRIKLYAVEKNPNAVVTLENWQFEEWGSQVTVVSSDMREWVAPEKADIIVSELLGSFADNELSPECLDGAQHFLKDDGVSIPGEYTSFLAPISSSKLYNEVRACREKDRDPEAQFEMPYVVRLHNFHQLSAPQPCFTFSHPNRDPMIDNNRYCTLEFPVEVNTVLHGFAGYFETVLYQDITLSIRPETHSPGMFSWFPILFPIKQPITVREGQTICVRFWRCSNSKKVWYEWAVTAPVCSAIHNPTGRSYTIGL

SMILES | IC50 [µM]
CN1CCC(Nc2cc(C(=O)N3CC[C@H](O)[C@@H](N4CCc5ccccc5C4)CC3)ncn2)CC1 (relative stereo) [US20240336593, Example 129] | < 0.1
CS(=O)(=O)N1CCC(Nc2cc(C(=O)N3CC[C@H](O)[C@@H](N4CCc5ccccc5C4)CC3)ncn2)CC1 (relative stereo) [US20240336593, Example 130] | < 0.1
CS(=O)(=O)c1ccc(Nc2cc(C(=O)N3CC[C@H](N4CCc5ccccc5C4)[C@@H](O)C3)ncn2)cc1 (relative stereo) [US20240336593, Example 132] | < 0.1
CS(=O)(=O)c1cccc(Nc2cc(C(=O)N3CC[C@H](N4CCc5ccccc5C4)[C@@H](O)C3)ncn2)c1 (relative stereo) [US20240336593, Example 133] | < 0.1
O=C(c1cc(NC2CCS(=O)(=O)CC2)ncn1)N1CC[C@H](N2CCc3ccccc3C2)[C@@H](O)C1 (relative stereo) [US20240336593, Example 135] | < 0.1
O=C(c1cc(NC2CCNCC2)ncn1)N1CC[C@H](N2CCc3ccccc3C2)[C@@H](O)C1 [US20240336593, Example 112] | < 0.1
O=C(c1cc(NC2CCN(CCO)CC2)ncn1)N1CC[C@H](N2CCc3ccccc3C2)[C@@H](O)C1 [US20240336593, Example 122] | < 0.1
N#CCC(=O)N1CCC(Nc2cc(C(=O)N3CC[C@H](N4CCc5ccccc5C4)[C@@H](O)C3)ncn2)CC1 [US20240336593, Example 143] | < 0.1
CC(=O)N1CCC(Nc2cc(C(=O)N3CC[C@@H](N4CCc5ccccc5C4)[C@H](O)C3)nc(-c3cn[nH]c3)n2)CC1 [US20240336593, Example 145] | < 0.1
CO[C@H]1C[C@@H](Nc2cc(C(=O)N3CC[C@@H](N4CCc5ccccc5C4)[C@H](O)C3)nc(-c3ccccc3)n2)C1 [US20240336593, Example 146] | < 0.1
O=C(c1cc(NCC(F)F)nc(-n2ccnc2)n1)N1CCC(N2CCc3ccccc3C2)[C@H](O)C1 (some centres not stated) [US20240336593, Example 147] | < 0.1
COCCCCNc1cc(C(=O)N2CC[C@@H](N3CCc4ccccc4C3)[C@H](O)C2)nc(-c2ccccc2)n1 [US20240336593, Example 148] | < 0.1

The next lines start with the values.

IC50 [µM] | SMILES
< 0.1 | Cc1cccc(Nc2cc(N3CC[C@H](N4CCc5ccccc5C4)[C@@H](O)C3)ncn2)c1 (relative stereo) [US20240336593, Example 34]
< 0.1 | CN1CCC(Nc2cc(C(=O)N3CC[C@H](N4CCc5ccccc5C4)[C@@H](O)C3)ncn2)CC1 (relative stereo) [US20240336593, Example 100]
< 0.1 | COc1ccccc1Nc1cc(C(=O)N2CC[C@H](N3CCc4ccccc4C3)[C@@H](O)C2)ncn1 (relative stereo) [US20240336593, Example 105]
< 0.1 | O=C(c1cc(NC2CCN(CC(F)(F)F)CC2)ncn1)N1CC[C@H](N2CCc3ccccc3C2)[C@@H](O)C1 (relative stereo) [US20240336593, Example 121]
< 0.1 | O=C(c1cc(NC2CCOCC2)ncn1)N1CC[C@H](O)[C@@H](N2CCc3ccccc3C2)CC1 (relative stereo) [US20240336593, Example 128]
